Experimental data from patent US20220289732A1, “HETEROCYCLIC WDR5 INHIBITORS AS ANTI-CANCER COMPOUNDS” (NOVARTIS AG, priority 2019, published 2022).

Experiments:
[1] = molecular target: wild type MLL1 four-member complex (MLL1-4C) (Homo sapiens, UniProt P61964); test: MLL1 LC-MS assay (SAH production); format: biochemical; details: read-out: (b) MLL LCMS Peptide Val.v.1 Qualified AC50
Method in brief: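 MLL1-4C (30 nM final) was preincubated 20 min with compound (3-fold dilutions, 8 or 12 points) and SAM in Tris-HCl pH 8.0 buffer. H3K4me0 peptide (histone H3[1-21]-biotin) was then added, giving final 2.5 μM SAM and 10 μM substrate, and reactions ran 120 min at rt. After TFA/d4-SAH quench, SAH was quantified by LC-MS/MS and IC50 fitted from control-normalised activity.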

MV4-11 cells = test: MV4-11 6-day cell growth CTG (CellTiter-Glo) assay; format: cell-based; details: Homo sapiens, MV4-11, 144 h, 6 days, read-out: (c) MLL/WDR5 cell proliferation assay//MLL/WDR5 proliferation MV4:11 Qualified AC50
Method in brief: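 Exponentially growing MV4-11 AML cells (RPMI 1640, 10% FBS) seeded at 300 cells/well with 12-point 1:3 compound dilutions, top final concentration 50 μM. Viability read by CellTiter-Glo luminescence after 6 days at 37° C; % inhibition vs DMSO-only wells fitted to dose-response for IC50.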

WDR5 = WDR5 (Homo sapiens, UniProt P61964); test: WDR5 HTRF binding assay; details: read-out: (a) WDR5 HTRF Pep Val v.1[Inhibitor/IC50]Qualified AC50
Method in brief: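 6 nM WDR5 and 20 nM biotin-MLL1 WIN peptide (3762-3773) were incubated with compound (12-point, 3-fold dilutions) in pH 7.5 Hepes/NaCl/DTT buffer for 20 min at rt. Streptavidin-APC plus anti-His-Eu were then added for 1 hr, with HTRF read at 665/615. IC50 was fit from control-normalized activity; the counter assay used 15 nM biotin-PEG-His peptide.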

CNc1nccn1Cc1cc2c(c(-c3cc(CO)ccc3Cl)c1)CCN(Cc1ccc(F)c(OC)c1)C2=O [Example 65, 5-(2-chloro-5-(hydroxymethyl)phenyl)-2-(4-fluoro-3-methoxybenzyl)-7-((2-(methylamino)-1H-imidazol-1-yl)methyl)-3,4-dihydroisoquinolin-1(2H)-one]
10 to 1000 nM: AC50 [1] | AC50 (MV4-11 cells) | IC50 (WDR5)

CNc1nccn1Cc1cc2c(c(-c3cn(C)nc3C(F)F)c1)CCN(Cc1ccc(F)c(OC)c1)C2=O [Example 66, 5-(3-(difluoromethyl)-1-methyl-1H-pyrazol-4-yl)-2-(4-fluoro-3-methoxybenzyl)-7-((2-(methylamino)-1H-imidazol-1-yl)methyl)-3,4-dihydroisoquinolin-1(2H)-one]
10 to 1000 nM: AC50 [1] | AC50 (MV4-11 cells) | IC50 (WDR5)

CNc1nccn1Cc1cc2c(c(-c3cc(CO)cnc3Cl)c1)CCN(Cc1cc(F)cc(Cl)c1)C2=O [Example 67, 5-(2-chloro-5-(hydroxymethyl)pyridin-3-yl)-2-(3-chloro-5-fluorobenzyl)-7-((2-(methylamino)-1H-imidazol-1-yl)methyl)-3,4-dihydroisoquinolin-1(2H)-one]
10 to 1000 nM: AC50 [1] | AC50 (MV4-11 cells) | IC50 (WDR5)

CNc1nccn1Cc1cc2c(c(-c3cc(CO)cnc3Cl)c1)CCN(Cc1cc(OC)c(F)cn1)C2=O [Example 68, 5-(2-chloro-5-(hydroxymethyl)pyridin-3-yl)-2-((5-fluoro-4-methoxypyridin-2-yl)methyl)-7-((2-(methylamino)-1H-imidazol-1-yl)methyl)-3,4-dihydroisoquinolin-1(2H)-one]
10 to 1000 nM: AC50 [1] | AC50 (MV4-11 cells) | IC50 (WDR5)

CNc1nccn1Cc1cc2c(c(-c3cc(CO)cnc3Cl)c1)CCN(Cc1ccc(F)c(C#N)c1)C2=O [Example 69, 5-((5-(2-chloro-5-(hydroxymethyl)pyridin-3-yl)-7-((2-(methylamino)-1H-imidazol-1-yl)methyl)-1-oxo-3,4-dihydroisoquinolin-2(1H)-yl)methyl)-2-fluorobenzonitrile]
10 to 1000 nM: AC50 [1] | AC50 (MV4-11 cells) | IC50 (WDR5)

CNc1nccn1Cc1cc2c(c(-c3cc(CO)cnc3Cl)c1)CCN(Cc1ccc(F)c(F)c1)C2=O [Example 70, 5-(2-chloro-5-(hydroxymethyl)pyridin-3-yl)-2-(3,4-difluorobenzyl)-7-((2-(methylamino)-1H-imidazol-1-yl)methyl)-3,4-dihydroisoquinolin-1(2H)-one]
10 to 1000 nM: AC50 [1] | AC50 (MV4-11 cells) | IC50 (WDR5)

CNc1nccn1Cc1cc2c(c(-c3cn(C)nc3C)c1)CCN([C@H](C)c1cc(OC)c(F)cn1)C2=O [Example 71, (R)-5-(1,3-dimethyl-1H-pyrazol-4-yl)-2-(1-(5-fluoro-4-methoxypyridin-2-yl)ethyl)-7-((2-(methylamino)-1H-imidazol-1-yl)methyl)-3,4-dihydroisoquinolin-1(2H)-one]
10 to 1000 nM: AC50 [1] | AC50 (MV4-11 cells) | IC50 (WDR5)

CNc1nccn1Cc1cc2c(c(-c3ccnn3C)c1)CCN(Cc1ccc(F)c(OC)c1)C2=O [Example 72, 2-(4-fluoro-3-methoxybenzyl)-5-(1-methyl-1H-pyrazol-5-yl)-7-((2-(methylamino)-1H-imidazol-1-yl)methyl)-3,4-dihydroisoquinolin-1(2H)-one]
10 to 1000 nM: AC50 [1] | AC50 (MV4-11 cells) | IC50 (WDR5)

CNc1nccn1Cc1cc2c(c(-c3cc(CO)cnc3Cl)c1)CCN(Cc1cccc(OC(F)F)c1)C2=O [Example 73, 5-(2-chloro-5-(hydroxymethyl)pyridin-3-yl)-2-(3-(difluoromethoxy)benzyl)-7-((2-(methylamino)-1H-imidazol-1-yl)methyl)-3,4-dihydroisoquinolin-1(2H)-one]
10 to 1000 nM: AC50 [1] | AC50 (MV4-11 cells) | IC50 (WDR5)

CNc1nccn1Cc1cc2c(c(-c3cc(CO)cnc3Cl)c1)CCN(Cc1ccc(F)c(OC(F)F)c1)C2=O [Example 74, 5-(2-chloro-5-(hydroxymethyl)pyridin-3-yl)-2-(3-(difluoromethoxy)-4-fluorobenzyl)-7-((2-(methylamino)-1H-imidazol-1-yl)methyl)-3,4-dihydroisoquinolin-1(2H)-one]
10 to 1000 nM: AC50 [1] | AC50 (MV4-11 cells) | IC50 (WDR5)

CNc1nccn1Cc1cc2c(c(-c3cn(C)nc3C#N)c1)CCN(Cc1ccc(F)c(OC)c1)C2=O [Example 77, 4-(2-(4-fluoro-3-methoxybenzyl)-7-((2-(methylamino)-1H-imidazol-1-yl)methyl)-1-oxo-1,2,3,4-tetrahydroisoquinolin-5-yl)-1-methyl-1H-pyrazole-3-carbonitrile]
10 to 1000 nM: AC50 [1] | AC50 (MV4-11 cells) | IC50 (WDR5)

CNc1nccn1Cc1cc2c(c(C3CC3)c1)CCN(Cc1cnc(F)c(OC)c1)C2=O [Example 79, 5-cyclopropyl-2-((6-fluoro-5-methoxypyridin-3-yl)methyl)-7-((2-(methylamino)-1H-imidazol-1-yl)methyl)-3,4-dihydroisoquinolin-1(2H)-one]
10 to 1000 nM: AC50 [1] | AC50 (MV4-11 cells) | IC50 (WDR5)

CCOc1cc([C@H](C)N2CCc3c(cc(Cn4ccnc4NC)cc3C3CC3)C2=O)cnc1C#N [Example 80, (S)-5-(1-(5-cyclopropyl-7-((2-(methylamino)-1H-imidazol-1-yl)methyl)-1-oxo-3,4-dihydroisoquinolin-2(1H)-yl)ethyl)-3-ethoxypicolinonitrile]
10 to 1000 nM: AC50 [1] | AC50 (MV4-11 cells) | IC50 (WDR5)

CCOc1cc([C@H](C)N2CCc3c(cc(Cn4ccnc4NC)cc3C3CC3)C2=O)ncc1F [Example 81, (S)-5-cyclopropyl-2-(1-(4-ethoxy-5-fluoropyridin-2-yl)ethyl)-7-((2-(methylamino)-1H-imidazol-1-yl)methyl)-3,4-dihydroisoquinolin-1(2H)-one]
10 to 1000 nM: AC50 [1] | AC50 (MV4-11 cells) | IC50 (WDR5)

CCOc1cc([C@@H](C)N2CCc3c(cc(Cn4ccnc4NC)cc3C3CC3)C2=O)ncc1C#N [Example 82, (R)-6-(1-(5-cyclopropyl-7-((2-(methylamino)-1H-imidazol-1-yl)methyl)-1-oxo-3,4-dihydroisoquinolin-2(1H)-yl)ethyl)-4-ethoxynicotinonitrile]
10 to 1000 nM: AC50 [1] | AC50 (MV4-11 cells) | IC50 (WDR5)

CCOc1cc([C@H](C)N2CCc3c(cc(Cn4ccnc4NC)cc3C3CC3)C2=O)ncc1C#N [Example 83, (S)-6-(1-(5-cyclopropyl-7-((2-(methylamino)-1H-imidazol-1-yl)methyl)-1-oxo-3,4-dihydroisoquinolin-2(1H)-yl)ethyl)-4-ethoxynicotinonitrile]
10 to 1000 nM: AC50 [1] | AC50 (MV4-11 cells) | IC50 (WDR5)

CCOc1cc(CN2CCc3c(cc(Cn4ccnc4NC)cc3C3CC3)C2=O)cnc1C#N [Example 84, 5-((5-cyclopropyl-7-((2-(methylamino)-1H-imidazol-1-yl)methyl)-1-oxo-3,4-dihydroisoquinolin-2(1H)-yl)methyl)-3-ethoxypicolinonitrile]
10 to 1000 nM: AC50 [1] | AC50 (MV4-11 cells) | IC50 (WDR5)

CNc1nccn1Cc1cc2c(c(C3CC3)c1)CCN([C@@H](C)c1cc(OC)c(F)cn1)C2=O [Example 85, (S)-5-cyclopropyl-2-(1-(5-fluoro-4-methoxypyridin-2-yl)ethyl)-7-((2-(methylamino)-1H-imidazol-1-yl)methyl)-3,4-dihydroisoquinolin-1(2H)-one]
10 to 1000 nM: AC50 [1] | AC50 (MV4-11 cells) | IC50 (WDR5)
